Measurements as given in ChEMBL document CHEMBL1143959, “Synthesis and structure-affinity relationships of novel spirocyclic sigma receptor ligands with furopyrazole structure” (Bioorg Med Chem, 2008).

Columns and labels:
[1] = Displacement of [3H]ditolylguanidine from sigma 2 […] receptor in rat liver
[2] = Displacement of [3H]MK-801 from NMDA receptor at 1 uM
[3] = Inhibition of adrenergic alpha 1 receptor
[4] = Inhibition of adrenergic alpha 2 receptor
[5] = molecular target: T1, 5-hydroxytryptamine receptor 1A (Homo sapiens, UniProt P08908); experiment: Inhibition of 5HT1A receptor
T1 sequence (P08908 whole entry): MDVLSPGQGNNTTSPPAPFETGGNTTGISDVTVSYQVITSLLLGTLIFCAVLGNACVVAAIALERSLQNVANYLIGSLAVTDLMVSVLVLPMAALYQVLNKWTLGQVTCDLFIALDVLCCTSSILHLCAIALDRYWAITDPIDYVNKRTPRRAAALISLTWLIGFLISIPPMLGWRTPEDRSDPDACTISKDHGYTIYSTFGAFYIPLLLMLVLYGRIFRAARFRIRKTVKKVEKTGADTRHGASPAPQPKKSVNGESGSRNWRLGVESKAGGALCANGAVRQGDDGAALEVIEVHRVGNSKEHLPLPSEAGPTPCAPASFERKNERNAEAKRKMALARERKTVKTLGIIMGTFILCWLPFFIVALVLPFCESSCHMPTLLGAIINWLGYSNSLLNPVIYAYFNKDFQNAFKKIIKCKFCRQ

[6] = molecular target: Sodium-dependent serotonin transporter (Homo sapiens, UniProt P31645); experiment: Inhibition of 5HTT receptor
[7] = molecular target: Voltage-gated inwardly rectifying potassium channel KCNH2 (Homo sapiens, UniProt Q12809); experiment: Inhibition of human ERG channel
[8] = species on record: Rattus norvegicus; experiment: Displacement of [3H]ditolylguanidine from sigma 2 […] receptor in rat liver at 1 uM
[9] = molecular target: Sigma non-opioid intracellular receptor 1 (Cavia porcellus, UniProt Q60492); experiment: Displacement of [3H](+)-pentazocine from sigma 1 opioid receptor in guinea pig brain membrane; format: cell membranes
Sequence of Sigma non-opioid intracellular receptor 1 (Q60492 whole entry): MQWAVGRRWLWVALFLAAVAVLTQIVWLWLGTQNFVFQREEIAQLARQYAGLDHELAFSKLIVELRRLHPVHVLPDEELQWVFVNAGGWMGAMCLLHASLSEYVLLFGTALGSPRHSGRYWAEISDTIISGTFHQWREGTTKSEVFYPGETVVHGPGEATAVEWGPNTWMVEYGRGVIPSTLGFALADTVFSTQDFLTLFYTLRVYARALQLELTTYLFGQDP

Sequence of Sodium-dependent serotonin transporter (P31645 whole entry): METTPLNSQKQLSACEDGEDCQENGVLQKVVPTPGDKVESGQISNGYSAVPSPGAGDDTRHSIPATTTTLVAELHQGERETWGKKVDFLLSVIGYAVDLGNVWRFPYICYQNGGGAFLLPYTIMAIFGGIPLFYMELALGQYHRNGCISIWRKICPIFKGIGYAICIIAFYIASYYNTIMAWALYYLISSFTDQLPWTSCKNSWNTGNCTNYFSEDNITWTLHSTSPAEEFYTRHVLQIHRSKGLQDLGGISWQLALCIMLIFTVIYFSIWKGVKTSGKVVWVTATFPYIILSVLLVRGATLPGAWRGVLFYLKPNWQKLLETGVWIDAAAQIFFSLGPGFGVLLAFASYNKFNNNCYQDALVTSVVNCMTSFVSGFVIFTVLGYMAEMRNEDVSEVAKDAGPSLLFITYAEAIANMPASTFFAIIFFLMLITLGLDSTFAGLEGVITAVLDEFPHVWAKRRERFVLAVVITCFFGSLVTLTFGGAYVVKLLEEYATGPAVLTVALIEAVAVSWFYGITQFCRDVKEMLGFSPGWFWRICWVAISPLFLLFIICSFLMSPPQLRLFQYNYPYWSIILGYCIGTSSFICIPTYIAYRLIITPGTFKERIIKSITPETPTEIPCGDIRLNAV
Sequence of Voltage-gated inwardly rectifying potassium channel KCNH2 (Q12809 whole entry): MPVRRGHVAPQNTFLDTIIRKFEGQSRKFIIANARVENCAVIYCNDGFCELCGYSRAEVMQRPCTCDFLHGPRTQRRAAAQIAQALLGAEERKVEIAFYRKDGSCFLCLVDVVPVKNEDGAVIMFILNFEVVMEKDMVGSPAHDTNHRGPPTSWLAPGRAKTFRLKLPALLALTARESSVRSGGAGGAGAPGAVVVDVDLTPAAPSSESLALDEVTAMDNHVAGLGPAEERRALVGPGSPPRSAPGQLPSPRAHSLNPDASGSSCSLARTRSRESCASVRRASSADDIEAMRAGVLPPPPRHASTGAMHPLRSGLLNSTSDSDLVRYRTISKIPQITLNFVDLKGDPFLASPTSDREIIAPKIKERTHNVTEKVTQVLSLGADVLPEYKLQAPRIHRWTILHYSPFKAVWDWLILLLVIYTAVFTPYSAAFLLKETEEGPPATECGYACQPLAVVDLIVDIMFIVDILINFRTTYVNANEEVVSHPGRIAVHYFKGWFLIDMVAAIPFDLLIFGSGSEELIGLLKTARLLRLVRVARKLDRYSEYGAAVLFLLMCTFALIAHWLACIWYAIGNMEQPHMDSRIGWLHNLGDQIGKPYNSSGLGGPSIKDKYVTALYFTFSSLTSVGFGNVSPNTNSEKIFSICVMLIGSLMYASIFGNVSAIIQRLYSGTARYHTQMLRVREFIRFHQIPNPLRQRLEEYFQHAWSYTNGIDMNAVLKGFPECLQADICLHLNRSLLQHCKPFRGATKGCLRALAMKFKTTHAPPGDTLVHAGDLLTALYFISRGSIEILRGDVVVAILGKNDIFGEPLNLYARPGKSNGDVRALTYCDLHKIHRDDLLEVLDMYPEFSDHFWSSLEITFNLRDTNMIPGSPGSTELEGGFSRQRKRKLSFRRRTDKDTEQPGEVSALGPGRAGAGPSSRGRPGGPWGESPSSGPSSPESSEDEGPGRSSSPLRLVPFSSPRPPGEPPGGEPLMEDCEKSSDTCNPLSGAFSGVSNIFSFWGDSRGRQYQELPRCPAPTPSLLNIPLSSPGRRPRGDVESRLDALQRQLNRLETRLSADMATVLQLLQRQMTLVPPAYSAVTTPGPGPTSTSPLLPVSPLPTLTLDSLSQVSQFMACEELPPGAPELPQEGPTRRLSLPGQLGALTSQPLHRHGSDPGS

| Structure (SMILES) | Ki [1] [nM] | inhibition [2] [%] | IC50 [3] [nM] | IC50 [4] [nM] | IC50 [5] [nM] | IC50 [6] [nM] | IC50 [7] [nM] | inhibition [8] [%] | Ki [9] [nM] |
| --- | --- | --- | --- | --- | --- | --- | --- | --- | --- |
| CCCCN1CCC2(CC1)OC(OC)c1c2cnn1-c1ccccc1 (stereo not drawn) | 1050 | 30 | 1220 | > 1000 | > 10000 | > 10000 | 0.65 |  |  |
| c1ccc(-n2ncc3c2CCC3CCN2CCCCC2)cc1 (stereo not drawn) | 36.2 |  |  |  |  |  |  |  |  |
| COC1OC2(CCNCC2)c2cnn(-c3ccccc3)c21 (stereo not drawn) |  |  |  |  |  |  |  | 12 |  |
| COC1OC2(CCN(Cc3ccccc3)CC2)c2cnn(-c3ccccc3)c21 (stereo not drawn) | 1750 | 17 | > 1000 | > 1000 | > 10000 | > 10000 | 0.41 |  | 0.5 |
| Cc1ccccc1NC(=N)Nc1ccccc1C [DITOLYLGUANIDINE] | 20.2 |  |  |  |  |  |  |  |  |
